Measurements: publication PMC4795166, “Design of a MCoTI-Based Cyclotide with Angiotensin (1-7)-Like Activity” (Molecules, 2016)

Molecular target: T1, recombinant human MAS1 (Homo sapiens, UniProt P04201)
T1 construct: expressed in transfected cells; host or cells: CHO cells stably transfected with pTEJ-8 vector
T1 sequence (P04201 1-325): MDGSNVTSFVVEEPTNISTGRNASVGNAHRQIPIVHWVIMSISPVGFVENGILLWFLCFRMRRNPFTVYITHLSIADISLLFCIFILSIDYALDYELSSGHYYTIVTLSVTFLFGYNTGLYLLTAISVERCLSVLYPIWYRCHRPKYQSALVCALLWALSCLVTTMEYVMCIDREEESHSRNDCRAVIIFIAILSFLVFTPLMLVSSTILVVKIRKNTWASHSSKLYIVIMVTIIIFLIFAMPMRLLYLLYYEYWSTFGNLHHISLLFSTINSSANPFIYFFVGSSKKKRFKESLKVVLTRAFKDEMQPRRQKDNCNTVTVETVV
Assay: MAS1 receptor activation, cell-based fluorescence assay of NO release in CHO cells
Settings: absence of antagonist, MAS1 stably transfected CHO cells, 2 h incubation, two experiments
Description: Next, we tested the ability of cyclotide MCo-AT1-7 to activate the MAS1 receptor using CHO cells stably transfected with pTEJ-8 vector expressing recombinant human MAS1 in a cell-based fluorescence assay to detect the amount of NO release (Figure 5). […] The activity of the cyclotide MCo-AT1-7 was estimated to be ≈90% of that of peptide AT1-7 at 10 nM in this assay.
CHO cells stably transfected with pTEJ-8 vector expressing recombinant human MAS1 clone are grown to confluency. After washing, cells were incubated for a short time in 700 µL of supplemented Tyrode’s salts containing 10 µM 2-phenyl-4,4,5,5-tetramethylimidazoline-1-oxyl-3-oxide (PTIO), 100 µM 2,6-diaminonaftalene (DAN), and 1 mM L-arginine. When using antagonist for competition assays, cells are exposed to MAS1 antagonist A779 (D-Ala^7-AT 1-7) at 0.1 µM for 15 min before addition of the cyclotides to be tested. Different concentrations of the cyclotides to be analyzed are added to the cell medium and the plates are agitated for 1 min before being placed into the incubator for 2 h. After 2 h, the cellular supernatants are transferred to opaque 96 well plates, and the amount of released NO is measured by fluorescence (λex = 380 nm, λem = 425 nm).

CC[C@H](C)[C@H](NC(=O)[C@H](Cc1ccc(O)cc1)NC(=O)[C@@H](NC(=O)[C@H](CCCNC(=N)N)NC(=O)[C@@H](N)CC(=O)O)C(C)C)C(=O)N[C@@H](Cc1c[nH]cn1)C(=O)N1CCC[C@H]1C(=O)O [AT1-7, angiotensin (1-7)]
MAS1 activation: increase of intracellular NO concentration: increase the intracellular concentration of NO in a dose dependent manner
